According to PubChem BioAssay (NCI):
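These data come from cells grown in 96-well plates and exposed to compound for 48 hours at five concentrations. GI50 = concentration required for 50% inhibition of growth. TGI: total growth inhibition.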

Legend:
Assay in all cases: inhibition of tumour cell growth, NCI panel, 48 h
HS 578T breast = test system: HS 578T breast
SK-OV-3 ovarian = test system: SK-OV-3 ovarian
SNB-75 CNS = test system: SNB-75 CNS
COLO 205 colon = test system: COLO 205 colon
UACC-257 melanoma = test system: UACC-257 melanoma
NCI-H23 lung = test system: NCI-H23 lung
SK-MEL-28 melanoma = test system: SK-MEL-28 melanoma
LOX IMVI melanoma = test system: LOX IMVI melanoma
SR leukemia = test system: SR leukemia
T-47D breast = test system: T-47D breast
OVCAR-3 ovarian = test system: OVCAR-3 ovarian
K-562 leukemia = test system: K-562 leukemia
CCRF-CEM leukemia = test system: CCRF-CEM leukemia
MALME-3M melanoma = test system: MALME-3M melanoma
MDA-MB-231 breast = test system: MDA-MB-231 breast
NCI-H522 lung = test system: NCI-H522 lung
M14 melanoma = test system: M14 melanoma
HCT-116 colon = test system: HCT-116 colon
IGROV1 ovarian = test system: IGROV1 ovarian
HCC-2998 colon = test system: HCC-2998 colon
BT-549 breast = test system: BT-549 breast
HCT-15 colon = test system: HCT-15 colon
OVCAR-5 ovarian = test system: OVCAR-5 ovarian
NCI/ADR-RES ovarian = test system: NCI/ADR-RES ovarian
A498 renal = test system: A498 renal
U251 CNS = test system: U251 CNS
SNB-19 CNS = test system: SNB-19 CNS
HOP-92 NSCLC = test system: HOP-92 NSCLC
MDA-MB-435 = test system: MDA-MB-435
UACC-62 melanoma = test system: UACC-62 melanoma
A549 NSCLC = test system: A549 NSCLC
786-0 renal = test system: 786-0 renal
UO-31 renal = test system: UO-31 renal
SF-539 CNS = test system: SF-539 CNS
KM12 colon = test system: KM12 colon
MCF7 breast = test system: MCF7 breast
MOLT-4 leukemia = test system: MOLT-4 leukemia
SW-620 colon = test system: SW-620 colon
HOP-62 NSCLC = test system: HOP-62 NSCLC
OVCAR-4 ovarian = test system: OVCAR-4 ovarian
NCI-H226 lung = test system: NCI-H226 lung
RPMI-8226 leukemia = test system: RPMI-8226 leukemia
ACHN renal = test system: ACHN renal
OVCAR-8 ovarian = test system: OVCAR-8 ovarian
SF-295 CNS = test system: SF-295 CNS
SF-268 CNS = test system: SF-268 CNS
SK-MEL-5 melanoma = test system: SK-MEL-5 melanoma
HT29 colon = test system: HT29 colon
HL-60(TB) leukemia = test system: HL-60(TB) leukemia
DU-145 prostate = test system: DU-145 prostate
CAKI-1 renal = test system: CAKI-1 renal
RXF 393 renal = test system: RXF 393 renal
NCI-H460 lung = test system: NCI-H460 lung
TK-10 renal = test system: TK-10 renal
SN12C renal = test system: SN12C renal

**Q.** With `CN1CCc2c(c3ccccc3c3ccccc23)C1` as the compound, how does the GI50 (HS 578T breast) read?
**A.** 3.29 µM

**Q.** And the TGI (HS 578T breast)?
**A.** 17.8 µM

**Q.** What about the GI50 (SK-OV-3 ovarian) of the same compound?
**A.** 8.86 µM

**Q.** And the TGI (SK-OV-3 ovarian)?
**A.** 44.2 µM

**Q.** What about the GI50 (SNB-75 CNS) of the same compound?
**A.** 6.14 µM

**Q.** What about the TGI (SNB-75 CNS) of the same compound?
**A.** 19.9 µM

**Q.** And the GI50 (COLO 205 colon)?
**A.** 3.32 µM

**Q.** What about the TGI (COLO 205 colon) of the same compound?
**A.** 11.1 µM

**Q.** What about the GI50 (UACC-257 melanoma) of the same compound?
**A.** 2.87 µM

**Q.** And the TGI (UACC-257 melanoma)?
**A.** 8.72 µM

**Q.** What about the GI50 (NCI-H23 lung) of the same compound?
**A.** 5.24 µM

**Q.** And the TGI (NCI-H23 lung)?
**A.** 21.7 µM

**Q.** What about the GI50 (SK-MEL-28 melanoma) of the same compound?
**A.** 4.75 µM

**Q.** What about the TGI (SK-MEL-28 melanoma) of the same compound?
**A.** 18.9 µM

**Q.** What about the GI50 (LOX IMVI melanoma) of the same compound?
**A.** 3.17 µM

**Q.** And the TGI (LOX IMVI melanoma)?
**A.** 11.2 µM

**Q.** What about the GI50 (SR leukemia) of the same compound?
**A.** 3.44 µM

**Q.** And the TGI (SR leukemia)?
**A.** 15.6 µM

**Q.** What about the GI50 (T-47D breast) of the same compound?
**A.** 5.68 µM

**Q.** And the TGI (T-47D breast)?
**A.** 26.7 µM

**Q.** And the GI50 (OVCAR-3 ovarian)?
**A.** 9.92 µM

**Q.** What about the TGI (OVCAR-3 ovarian) of the same compound?
**A.** 25.6 µM

**Q.** And the GI50 (K-562 leukemia)?
**A.** 3.59 µM

**Q.** And the TGI (K-562 leukemia)?
**A.** 14.6 µM

**Q.** What about the GI50 (CCRF-CEM leukemia) of the same compound?
**A.** 4.62 µM

**Q.** And the TGI (CCRF-CEM leukemia)?
**A.** 21.5 µM

**Q.** And the GI50 (MALME-3M melanoma)?
**A.** 3.34 µM

**Q.** What about the TGI (MALME-3M melanoma) of the same compound?
**A.** 11.6 µM

**Q.** And the GI50 (MDA-MB-231 breast)?
**A.** 8.62 µM

**Q.** And the TGI (MDA-MB-231 breast)?
**A.** 32.2 µM

**Q.** And the GI50 (NCI-H522 lung)?
**A.** 2.76 µM

**Q.** And the TGI (NCI-H522 lung)?
**A.** 8.49 µM

**Q.** What about the GI50 (M14 melanoma) of the same compound?
**A.** 4.34 µM

**Q.** What about the TGI (M14 melanoma) of the same compound?
**A.** 16.7 µM

**Q.** What about the GI50 (HCT-116 colon) of the same compound?
**A.** 3.93 µM

**Q.** And the TGI (HCT-116 colon)?
**A.** 13.5 µM

**Q.** What about the GI50 (IGROV1 ovarian) of the same compound?
**A.** 4.45 µM

**Q.** And the TGI (IGROV1 ovarian)?
**A.** 16.3 µM

**Q.** And the GI50 (HCC-2998 colon)?
**A.** 5.81 µM

**Q.** What about the TGI (HCC-2998 colon) of the same compound?
**A.** 20.2 µM

**Q.** What about the GI50 (BT-549 breast) of the same compound?
**A.** 12.4 µM

**Q.** And the TGI (BT-549 breast)?
**A.** 29 µM

**Q.** What about the GI50 (HCT-15 colon) of the same compound?
**A.** 4.43 µM

**Q.** What about the TGI (HCT-15 colon) of the same compound?
**A.** 51.9 µM

**Q.** And the GI50 (OVCAR-5 ovarian)?
**A.** 10.9 µM

**Q.** And the TGI (OVCAR-5 ovarian)?
**A.** 38.1 µM

**Q.** And the GI50 (NCI/ADR-RES ovarian)?
**A.** 4.58 µM

**Q.** And the TGI (NCI/ADR-RES ovarian)?
**A.** 25.3 µM

**Q.** What about the GI50 (A498 renal) of the same compound?
**A.** 1.81 µM

**Q.** And the TGI (A498 renal)?
**A.** 7.41 µM

**Q.** What about the GI50 (U251 CNS) of the same compound?
**A.** 3.85 µM

**Q.** And the TGI (U251 CNS)?
**A.** 16.2 µM

**Q.** What about the GI50 (SNB-19 CNS) of the same compound?
**A.** 4.38 µM

**Q.** And the TGI (SNB-19 CNS)?
**A.** 39.1 µM

**Q.** What about the GI50 (HOP-92 NSCLC) of the same compound?
**A.** 3.31 µM

**Q.** What about the TGI (HOP-92 NSCLC) of the same compound?
**A.** 16.7 µM

**Q.** And the GI50 (MDA-MB-435)?
**A.** 4.47 µM

**Q.** What about the TGI (MDA-MB-435) of the same compound?
**A.** 17.3 µM

**Q.** And the GI50 (UACC-62 melanoma)?
**A.** 4.12 µM

**Q.** What about the TGI (UACC-62 melanoma) of the same compound?
**A.** 16.1 µM

**Q.** And the GI50 (A549 NSCLC)?
**A.** 3.25 µM

**Q.** And the TGI (A549 NSCLC)?
**A.** 18.5 µM

**Q.** And the GI50 (786-0 renal)?
**A.** 6.23 µM

**Q.** What about the TGI (786-0 renal) of the same compound?
**A.** 21.3 µM

**Q.** And the GI50 (UO-31 renal)?
**A.** 3.26 µM

**Q.** What about the TGI (UO-31 renal) of the same compound?
**A.** 17.2 µM

**Q.** What about the GI50 (SF-539 CNS) of the same compound?
**A.** 5.1 µM

**Q.** What about the TGI (SF-539 CNS) of the same compound?
**A.** 18.1 µM

**Q.** What about the GI50 (KM12 colon) of the same compound?
**A.** 4.91 µM

**Q.** And the TGI (KM12 colon)?
**A.** 16.8 µM

**Q.** And the GI50 (MCF7 breast)?
**A.** 3.63 µM

**Q.** What about the TGI (MCF7 breast) of the same compound?
**A.** 13.6 µM

**Q.** What about the GI50 (MOLT-4 leukemia) of the same compound?
**A.** 3.78 µM

**Q.** And the TGI (MOLT-4 leukemia)?
**A.** 19.9 µM

**Q.** What about the GI50 (SW-620 colon) of the same compound?
**A.** 3.59 µM

**Q.** And the TGI (SW-620 colon)?
**A.** 15.3 µM

**Q.** And the GI50 (HOP-62 NSCLC)?
**A.** 7.11 µM

**Q.** And the TGI (HOP-62 NSCLC)?
**A.** 26.1 µM

**Q.** And the GI50 (OVCAR-4 ovarian)?
**A.** 10.3 µM

**Q.** What about the TGI (OVCAR-4 ovarian) of the same compound?
**A.** 40.2 µM

**Q.** And the GI50 (NCI-H226 lung)?
**A.** 3.77 µM

**Q.** What about the TGI (NCI-H226 lung) of the same compound?
**A.** 29.3 µM

**Q.** What about the GI50 (RPMI-8226 leukemia) of the same compound?
**A.** 3.66 µM

**Q.** What about the TGI (RPMI-8226 leukemia) of the same compound?
**A.** 12.7 µM

**Q.** What about the GI50 (ACHN renal) of the same compound?
**A.** 3.6 µM

**Q.** What about the TGI (ACHN renal) of the same compound?
**A.** 14.5 µM

**Q.** And the GI50 (OVCAR-8 ovarian)?
**A.** 4.46 µM

**Q.** And the TGI (OVCAR-8 ovarian)?
**A.** 43.2 µM

**Q.** What about the GI50 (SF-295 CNS) of the same compound?
**A.** 5.37 µM

**Q.** What about the TGI (SF-295 CNS) of the same compound?
**A.** 33.6 µM

**Q.** What about the GI50 (SF-268 CNS) of the same compound?
**A.** 6.46 µM

**Q.** What about the TGI (SF-268 CNS) of the same compound?
**A.** 28 µM

**Q.** And the GI50 (SK-MEL-5 melanoma)?
**A.** 2.97 µM

**Q.** And the TGI (SK-MEL-5 melanoma)?
**A.** 11.4 µM

**Q.** And the GI50 (HT29 colon)?
**A.** 4.23 µM

**Q.** What about the TGI (HT29 colon) of the same compound?
**A.** 16.8 µM

**Q.** What about the GI50 (HL-60(TB) leukemia) of the same compound?
**A.** 3.32 µM

**Q.** What about the TGI (HL-60(TB) leukemia) of the same compound?
**A.** 10.2 µM

**Q.** What about the GI50 (DU-145 prostate) of the same compound?
**A.** 5.28 µM

**Q.** And the TGI (DU-145 prostate)?
**A.** 20.5 µM

**Q.** What about the GI50 (CAKI-1 renal) of the same compound?
**A.** 4.12 µM

**Q.** And the TGI (CAKI-1 renal)?
**A.** 18.5 µM

**Q.** And the GI50 (RXF 393 renal)?
**A.** 4.18 µM

**Q.** What about the TGI (RXF 393 renal) of the same compound?
**A.** 17.1 µM

**Q.** What about the GI50 (NCI-H460 lung) of the same compound?
**A.** 3.67 µM

**Q.** And the TGI (NCI-H460 lung)?
**A.** 13.6 µM

**Q.** And the GI50 (TK-10 renal)?
**A.** 4.27 µM

**Q.** And the TGI (TK-10 renal)?
**A.** 15.4 µM

**Q.** What about the GI50 (SN12C renal) of the same compound?
**A.** 3.74 µM

**Q.** What about the TGI (SN12C renal) of the same compound?
**A.** 27.6 µM
